In this assay the test system is VEGFR2 and ERK. The assay is described as follows: VEGF-induced signaling, immunoblot, PrxII knocked down HAECs. It is filed as cell-based, human. Conditions: 2 hours pretreatment, VEGF 10 minutes. The procedure:
The cells were rinsed with an ice-cold phosphate buffered saline (PBS) solution and then lysed in an extraction buffer solution containing 20 mM Hepes (pH 7.0), 1% Triton X-100, 150 mM NaCl, 10% glycerol, 1 mM EDTA, 2 mM EGTA, 1 mM DTT, 5 mM Na3VO4, 5 mM NaF, 1 mM AEBSF, aprotinin (5 μg/ml), and leupeptin (5 μg/ml). After being centrifuged at 12,000×g, the purified cell extracts were used for immunoblotting. In order to adjust the loading, the membranes were stripped by shaking them for 30 minutes at 60° C. in 67 mM Tris (pH 6.7), 2% SDS, and 100 mM 2-mercaptoethanol solution, and reprobed with an appropriate pan antibody.
In addition, the regulatory effects of GT on the PDGFRβ- and VEGFR2-mediated signaling pathway were examined. The GT treatment in HASMCs was quite different from PDGF-induced tyrosine phosphorylation that was enhanced by the PrxII knockdown (FIG. 12a). […] Conversely, the GT treatment in HAECs restored the VEGF-dependent activation of VEGFR2 and ERK that had been diminished by the PrxII knockdown (FIG. 12b). The effects of GT in vascular cell fuction were further validated.
Lastly, the effects of GT, a representative ETP compound, on vascular cells were compared with the effects of other compounds known as anti-oxidant compounds such as N-acetylcysteine or butylated hydroxyanisole, and the results are shown in FIG. 33. Immunoblotting was performed by pretreating HAECs in which PrxII was knocked down by injecting siRNA with each compound at the concentrations indicated in the graphs for two hours, and then treating with VEGF for 10 minutes. […] These comparative experiments led the inventors of the present invention to conclude that the distinguished […] function of the ETP compounds is clearly due to the PrxII-analogous activity, and additionally to the special chemical property of the dithioketopiperazine ring.
Background: A western blot detects proteins with antibodies after separation by electrophoresis.

The text below walks through data of patent US10450327B2, “Epidithiodioxopiperazine compound or its derivatives, and the use thereof” (priority 2011, dated 2019).

Molecules are shown by their SMILES.

As to `COc1ccc(O)c(C(C)(C)C)c1` [butylated hydroxyanisole], the “VEGF-dependent activation of VEGFR2 and ERK” value is listed as “did not induce”. On to `CC(=O)N[C@@H](CS)C(=O)O` [N-acetylcysteine], for which the “VEGF-dependent activation of VEGFR2 and ERK” value is reported as “did not induce”.
